The test system of experiment [1] is T47D. Kind of experiment: Cell viability assay (WST-8). Type of experiment: cell-based, human. The following applies: for IC50: 72 h. The source says: (§1) Correlation between IC50 values was observed.
Experiment [2] deals with BxPC-3. The following applies: for IC50: 72 h.
Another experiment relates to LNCaP. The following applies: for IC50: 72 h.
The next experiment deals with MRC-5. Conditions: 72 h.
For another experiment, the system named is HEK293. Conditions: 72 h.
In another experiment the test system is OE19. Conditions: 72 h.
For the next experiment, the system named is U937. Conditions: 72 h.
Experiment [3] concerns PE cell (pancreatic epidermal). As to the kind of experiment: Cell viability assay (WST-8). It is filed as cell-based.
Description: as §1
(In general: Tetrazolium assays rely on reduction of a dye to a coloured formazan, in cell work by metabolically active cells.)

Another experiment concerns HEK293T. Type of experiment: cell-based. The following applies: 72 h.
Another experiment deals with A172. Kind of experiment: Cell viability assay (WST-8). It is filed as cell-based. Conditions: 72 h.
The test system of the next experiment is KCCT873. As to the kind of experiment: Cell viability assay (WST-8). Type of experiment: cell-based. The following applies: 72 h.
Experiment [4] has as its system BxPC-3. As to the kind of experiment: Short-exposure killing of cancer cells (WST-8). Type of experiment: cell-based, human. The following applies: 10 μM.
Experiment [5] has as its system U251. Conditions: for IC50: 72 h.
Another experiment concerns WI-38. The following applies: 72 h.
In a further experiment the test system is MDA-MB-231. The following applies: for IC50: 72 h.
In another experiment the test system is COLO587. Kind of experiment: Cell viability assay (WST-8). Type of experiment: cell-based.
Description: as §1

A further experiment relates to SN-19. Kind of experiment: Cell viability assay (WST-8). Type of experiment: cell-based.
Description: as §1

For experiment [6], the system named is HC cell (hepatocyte cell). Kind of experiment: Cell viability assay (WST-8). Type of experiment: cell-based, human. The following applies: 72 h.
Description: as §1

The test system of experiment [7] is T47D. Kind of experiment: Annexin V and caspase 3,7 flow cytometry. Type of experiment: cell-based, human. Conditions: 10 μM, two hours. How it is done:
T47D and PE cells were incubated with TfR-lytic chimeric peptide (10 μM) and lytic peptide (10 μM) for two hours. Annexin V (FIG. 26A) and caspase 3,7 activity (FIG. 26B) were detected in the green channel, and propidium iodide staining was detected in the red channel, and flow cytometry analysis was performed. In T47D cells treated with TfR-lytic chimeric peptide, the ratio of the right half panel showing Annexin V-positive cells and caspase 3,7-activated cells increased.

For a further experiment, the system named is PE cells (normal cells). As to the kind of experiment: Annexin V and caspase 3,7 flow cytometry. It is filed as cell-based. Conditions: 10 μM, two hours. In general terms: Flow cytometry measures light scatter and fluorescence of single cells or particles in a stream.
The subject of another experiment is T47D breast cancer cells. Kind of experiment: Membrane permeabilization (calcein). Type of experiment: cell-based, human. The following applies: 10 μM, 0 to 15 minutes. How it is done: Furthermore, after addition of TfR-lytic chimeric peptide at concentration of 10 μM, the cells in calcein solution were observed after 0 minute, five minutes, 10 minutes and 15 minutes.

Experiment [8] concerns T47D. As to the kind of experiment: Short-exposure killing of cancer cells (WST-8). Type of experiment: cell-based, human. The following applies: 1 to 180 minutes exposure. How it is done: The cells were further cultured for 72 hours.
Experiment [9] concerns human recombinant IL13R protein. As to the kind of experiment: BIACORE binding to IL13R. Background: SPR reads the build-up and loss of mass on a sensor chip optically.
The next experiment concerns HN-12. Kind of experiment: Cell viability assay (WST-8). Type of experiment: cell-based, human. The following applies: 72 hours.
Experiment [10] has as its system U251. Kind of experiment: Short-exposure killing of cancer cells (WST-8). Type of experiment: cell-based, human. Conditions: 10 μM.
A further experiment concerns DU145. As to the kind of experiment: Cell viability assay (WST-8). It is filed as cell-based, human. Conditions: 72 hours.
In another experiment the test system is H322. Conditions: 72 hours.
The target of experiment [11] is human recombinant NRP1 protein (Homo sapiens, UniProt O14786). As to the kind of experiment: BIACORE binding to NRP1. How it is done: Based on the results of binding three-dimensional structure analysis of NRP1 and a Sema3A, a ligand thereof, partial peptide sequence which is important for binding (NYQWVPYQGRVPYPR (SEQ ID NO: 29)) was designed and chemically synthesized. By BIACORE analysis, binding affinity with human recombinant NRP1 protein was assessed.
Chain of human recombinant NRP1 protein (O14786 22-923): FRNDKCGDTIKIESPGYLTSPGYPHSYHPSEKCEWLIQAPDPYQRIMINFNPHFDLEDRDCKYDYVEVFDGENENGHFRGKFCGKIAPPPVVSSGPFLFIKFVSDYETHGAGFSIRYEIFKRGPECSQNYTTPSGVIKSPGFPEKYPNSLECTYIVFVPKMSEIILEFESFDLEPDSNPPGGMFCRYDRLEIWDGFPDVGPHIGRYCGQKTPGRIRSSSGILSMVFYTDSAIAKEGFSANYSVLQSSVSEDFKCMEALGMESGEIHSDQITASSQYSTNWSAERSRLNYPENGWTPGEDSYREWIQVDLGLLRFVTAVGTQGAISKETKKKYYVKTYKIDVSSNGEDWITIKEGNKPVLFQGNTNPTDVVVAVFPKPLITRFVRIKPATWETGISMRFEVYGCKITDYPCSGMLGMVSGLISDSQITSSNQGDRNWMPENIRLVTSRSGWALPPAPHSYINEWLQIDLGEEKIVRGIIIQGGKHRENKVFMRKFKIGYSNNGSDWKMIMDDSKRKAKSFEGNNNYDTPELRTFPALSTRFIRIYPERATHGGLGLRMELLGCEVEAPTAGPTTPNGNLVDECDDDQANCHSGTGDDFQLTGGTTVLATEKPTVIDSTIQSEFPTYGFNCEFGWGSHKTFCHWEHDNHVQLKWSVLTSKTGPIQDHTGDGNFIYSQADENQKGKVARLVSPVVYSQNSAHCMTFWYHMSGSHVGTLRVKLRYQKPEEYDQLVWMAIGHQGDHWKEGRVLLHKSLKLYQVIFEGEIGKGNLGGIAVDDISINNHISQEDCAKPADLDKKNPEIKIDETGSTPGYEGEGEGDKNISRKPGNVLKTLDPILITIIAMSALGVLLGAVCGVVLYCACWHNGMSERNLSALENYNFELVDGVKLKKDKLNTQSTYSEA

Where two headings read alike, the source gives them in different places. Non-standard residues stand in square brackets, D forms with d. Residues, ends and D or L forms follow the SMILES beside them. No end group written: not given here.

As a reminder, the IC50 is the midpoint of a concentration-inhibition curve.

For the compound `CC(C)C[C@H](NC(=O)[C@H](CC(C)C)NC(=O)[C@@H](CCCCN)NC(=O)[C@@H](CCCCN)NC(=O)[C@H](CC(C)C)NC(=O)[C@@H](CC(C)C)NC(=O)[C@H](CCCCN)NC(=O)[C@H](CC(C)C)NC(=O)[C@@H](CC(C)C)NC(=O)[C@H](CC(C)C)NC(=O)[C@H](CCCCN)NC(=O)CNC(=O)CNC(=O)CNC(=O)[C@H](CCCNC(=N)N)NC(=O)[C@@H]1CCCN1C(=O)[C@@H]1CCCN1C(=O)[C@H](CC(C)C)NC(=O)[C@H](Cc1c[nH]c2ccccc12)NC(=O)[C@@H](NC(=O)[C@H](C)N)[C@@H](C)O)C(=O)N[C@@H](CCCCN)C(=O)N[C@H](CC(C)C)C(=O)N[C@@H](CC(C)C)C(=O)N[C@@H](CCCCN)C(=O)N[C@@H](CCCCN)C(=O)N[C@@H](CCCCN)C(=O)O` [VEGFR2-Lytic] (H-ATWLPPRGGGKL[dL]LK[dL]L[dK][dK]LLK[dL]LKKK-OH; N-terminus and C-terminus assumed), the IC50 with T47D [1] was 6.4 µM; with BxPC-3 [2], 12.2 µM; in the experiment with LNCaP it was 8.9 µM; with MRC-5, above 20 µM; in the experiment with HEK293, above 20 µM; with OE19, 7.1 µM. The same compound showed an IC50 in the experiment on U937 of 3.5 µM.

With “KQLIRFLKRLDRNGGGKLLLKLLKKLLKLLKKK [IL4-LyticL]”, the IC50 in [3] (PE normal cells, 72 hours, Mean ± SD (Table 4), read-out: IC50) is above 20 µM; with HEK293T, 7.2 ± 0.7 µM; with A172 it was 3.8 ± 1.1 µM; with KCCT873, 4.6 ± 0.1 µM; in the experiment on U251 [5], 3.7 ± 0.1 µM; in the experiment with BxPC-3 [2], 3.2 ± 0.4 µM. Moreover, the half-inhibitory concentration (IC50) in the experiment with WI-38 was found to be 9.8 ± 0.8 µM; in the experiment on MDA-MB-231, 5.6 ± 0.5 µM. For the same compound, the “contact time that sufficiently induces cell death” value with BxPC-3 [4] came to 10 min. Besides, the “cell-killing effect compared with LyticL alone” value is given as “cell-killing effect was enhanced” in the experiment on BxPC-3 [2] (BxPC-3, 72 hours) and “cell-killing effect was enhanced” with MDA-MB-231 (MDA-MB-231, 72 hours).

With `CSCC[C@H](NC(=O)[C@@H]1CCCN1C(=O)[C@@H]1CCCN1C(=O)[C@H](CCCNC(=N)N)NC(=O)[C@H](Cc1c[nH]cn1)NC(=O)[C@@H](N)[C@@H](C)O)C(=O)N[C@@H](Cc1c[nH]c2ccccc12)C(=O)N[C@@H](CO)C(=O)N1CCC[C@H]1C(=O)N[C@H](C(=O)N[C@@H](Cc1c[nH]c2ccccc12)C(=O)N1CCC[C@H]1C(=O)NCC(=O)NCC(=O)NCC(=O)N[C@@H](CCCCN)C(=O)N[C@@H](CC(C)C)C(=O)N[C@H](CC(C)C)C(=O)N[C@@H](CC(C)C)C(=O)N[C@@H](CCCCN)C(=O)N[C@H](CC(C)C)C(=O)N[C@@H](CC(C)C)C(=O)N[C@H](CCCCN)C(=O)N[C@H](CCCCN)C(=O)N[C@@H](CC(C)C)C(=O)N[C@@H](CC(C)C)C(=O)N[C@@H](CCCCN)C(=O)N[C@H](CC(C)C)C(=O)N[C@@H](CC(C)C)C(=O)N[C@@H](CCCCN)C(=O)N[C@@H](CCCCN)C(=O)N[C@@H](CCCCN)C(=O)O)C(C)C` [TfR-lytic peptide] (H-THRPPMWSPVWPGGGKL[dL]LK[dL]L[dK][dK]LLK[dL]LKKK-OH; N-terminus and C-terminus assumed), the 50% inhibitory concentration (IC50) with COLO587 (72 h) was 6.9 µM; in experiment [3] (72 h) it was above 20 µM; in the experiment with SN-19 (72 h), 8.2 µM; in experiment [6], above 20 µM; in the experiment with T47D [1], 4.8 µM; with U251 [5], 6.8 µM. Besides, the half-inhibitory concentration (IC50) in the experiment with LNCaP is 6.2 µM; in the experiment on MRC-5, above 20 µM; in the experiment with MDA-MB-231, 6.7 µM; with SK-BR-3 (72 h), 5.3 µM. For the same compound, the “IC50 ratio Lytic/TfR-lytic” value with COLO587 (COLO587) was 2.0; with SN-19 (SN-19), 3.1; with T47D [1] (T47D), 3.8; with U251 [5] (U251) it was 2.8; in the experiment with LNCaP (LNCaP) it was 2.7; in the experiment on MDA-MB-231 (MDA-MB-231), 4.4. In the experiment on SK-BR-3 (SK-BR-3), the “IC50 ratio Lytic/TfR-lytic” value is on record as 5.0. For the same compound, the “ratio of Annexin V-positive cells and caspase 3,7-activated cells” value in the experiment with T47D [7] is “increased”. Besides, the “percentage of Annexin V-positive cells and caspase 3,7-activated cells” value with PE cells (normal cells) is recorded as “did not increase”. The “membrane permeation” value in the experiment with T47D breast cancer cells is on record as “permeated the membrane was observed”. Moreover, the “rapid killing of cancer cells” value in the experiment on T47D [8] is given as “rapidly kill T47D cancer cells”.

Consider “KDLLLHLKKLFREGQFN (IL13R binding peptide) [IL13R-binding peptide]”, for which, in experiment [9], the “binding affinity (BIACORE, words)” value was “binding affinity with human recombinant IL13R protein was observed”.

In the case of “KDLLLHLKKLFREGQFNGGGKLLLKLLKKLLKLLKKK (IL13-lyticL chimeric peptide)”, the “cell-killing effect compared with LyticL alone” value with HN-12 is “cell-killing effect was enhanced”; in the experiment on U251 [5] (U251, 72 hours), “cell-killing effect was enhanced”. Besides, the “contact time that sufficiently induces cell death” value in the experiment on U251 [10] amounted to 10 min.

On to “YHWYGYTPQNVIGGGGGRLLRRLLRRLLRK (EGFbuf sequence)”, for which the “cell-killing effect compared with buf alone” value in the experiment with DU145 is reported as “cell-killing effect was enhanced”. Moreover, in the experiment on H322 (0 to 20 μM), the “cell-killing effect to H322 compared with lung normal cell line MRC-5” value is on record as “cell-killing sensitiveness to cancer cells was high”. In addition, the “cell-killing effect of chimeric peptide compared with lytic moiety alone” value with H322 (H322) was “cell-killing effect was enhanced”.

For the compound “NYQWVPYQGRVPYPR (NRP1 binding peptide) [NRP1-binding peptide]”, the “binding affinity (BIACORE, words)” value in [11] was “binding affinity with human recombinant NRP1 protein was observed”.
